Like-named read-outs stand apart in the source and are kept apart here.
How the values were obtained:
Type in all cases: physicochemical
[1] = Solubility of Form I in aqueous media by HPLC (Example 4); settings: thermodynamic from solid, 22° C.
Procedure: (§1) The vials were shaken. After 1 hr, a sample (˜0.5 ml) was removed via syringe, and filtered through a syringe filter (0.2 micron) into a second vial. 200 μl of each solution was then transferred into an HPLC vial and made up to 1 ml by adding 800 μl of diluent. These samples were analyzed directly by HPLC, and the response was outside the linearity range. Therefore a second dilution was performed, taking 0.1 ml of each sample and making up to 2 ml with diluent. The samples were re-analyzed by HPLC. Then after shaking the suspensions for 18 hours in total, a second sample was taken as above. All samples were then diluted and analyzed by HPLC, as above. The temperature was noted (22° C.), and no gelling was observed.

[2] = Thermodynamic aqueous solubility; settings: water, 25 °C, water, thermodynamic from solid, water, 25° C., 24 hours; at the pH of the next column; read-out: Aqueous solubility mg/mL free form
Procedure: The suspension was equilibrated at 25° C. for 24 hours then the pH was measured. The suspension was then filtered through a glass fibre C filter. […] Different volumes of the standard, diluted and undiluted sample solutions were injected.

[3] = Long-term and accelerated stability studies of Form I (Example 6)
Procedure: The storage conditions include the long-term storage condition of 25±2° C./60±5% RH, the intermediate storage condition of 30±2° C./65±5% RH, and the accelerated storage condition of 40±±2° C./75±±5% RH.

[4] = Solubility of Form I in organic solvents by HPLC (Example 4); settings: 22 °C, thermodynamic from solid
Procedure: as §1
The above procedure was repeated but using 8 different organic solvents in place of the aqueous media (analysis only after 18 hrs). Solvents used were acetonitrile, diethyl ether, ethanol, ethyl acetate, isopropanol, methanol, heptane and THF. All solvents gave suspensions at 100 mg/ml, except methanol which dissolved at 100 mg in 0.3 ml. […] These experiments were sampled once after 18 hours of slurrying.

[5] = Solubility of Formula I Form I in solvents, gravimetric analysis of mother liquors (Example 1); settings: organic solvent or mixture, thermodynamic from solid
Procedure: The solubility was calculated by gravimetric analysis after evaporation of the mother liquors collected.

[6] = Stability to humidity on storage (form by XRPD)
[7] = Gravimetric vapour sorption (GVS)
Procedure: The Gravimetric sorption isotherms were obtained using a Hiden IGASorp moisture sorption analyser, controlled by CFRSorp software. The sample temperature was maintained at 25° C. by a Huber re-circulating water bath. The humidity was controlled by mixing streams of dry and wet nitrogen, with a total flow rate of 250 ml/min. The relative humidity (RH) was measured by a calibrated Vaisala RH probe (dynamic range of 0-95% RH), located near the sample. The weight change, (mass relaxation) of the sample as a function of % RH was constantly monitored by the microbalance (accuracy 0.001 mg). Typically 10-20 mg of sample was placed in a tared mesh stainless steel basket at room temperature. The sample was loaded and unloaded at 40% RH and 25° C. (typical room conditions). The standard isotherm was performed at 25° C. at 10% RH intervals over a 0-90% RH range.

[8] = aqueous media, aqueous buffer, Aqueous pH 6.8
[9] = aqueous media, simulated gastric fluid, Aqueous pH 1.2
[10] = aqueous medium, aqueous buffer, Aqueous pH 4
[11] = aqueous medium, aqueous buffer, Aqueous pH 5

## COc1cc2c(cc1OC)[C@H]1C[C@@H](OC(=O)[C@@H](N)C(C)C)[C@H](CC(C)C)CN1CC2.Cc1ccc(S(=O)(=O)O)cc1.Cc1ccc(S(=O)(=O)O)cc1 [Form I, (S)-(2R,3R,11bR)-3-isobutyl-9,10-dimethoxy-2,3,4,6,7,11b-hexahydro-1H-pyrido[2,1-a]isoquinolin-2-yl 2-amino-3-methylbutanoate di(4-methylbenzenesulfonate)]
[1]; aqueous media, aqueous buffer, Aqueous pH 3
  solubility at 1 h: 28.4 mg/mL
[1]; [8]
  solubility at 1 h: 34 mg/mL
  solubility at 18 h: 35.4 mg/mL
[1]; [9]
  solubility at 1 h: 31.6 mg/mL
  solubility at 18 h: 33.2 mg/mL
[1]; aqueous medium, aqueous buffer, Aqueous pH 3
  solubility at 18 h: 28 mg/mL
[1]; [10]
  solubility at 1 h: 28.1 mg/mL
  solubility at 18 h: 27.8 mg/mL
[1]; [11]
  solubility at 1 h: 18.6 mg/mL
  solubility at 18 h: 27.9 mg/mL
[2]
  solubility at 24 h: 15 mg/mL
[3]; about 25° C. and about 60% relative humidity for about 24 months
  Stability on storage: stable
[3]; about 40° C. and about 75% relative humidity for about 6 months
  Stability on storage: stable
[3]; accelerated storage condition 40° C./75% RH, 3 months
  Stability on storage: chemical and physical stability
[3]; long-term storage condition 25° C./60% RH, up to 3 months
  Stability on storage: chemical and physical stability
[4]; organic solvent or mixture, Acetonitrile
  solubility at 18 h: 1.36 mg/mL
[4]; organic solvent or mixture, Diethyl ether
  solubility at 18 h: 0.01 mg/mL
[4]; organic solvent or mixture, Ethanol
  solubility at 18 h: 35.5 mg/mL
[4]; organic solvent or mixture, Ethyl acetate
  solubility at 18 h: 0.04 mg/mL
[4]; organic solvent or mixture, Heptane
  solubility at 18 h: 0.003 mg/mL
[4]; organic solvent or mixture, Isopropanol
  solubility at 18 h: 1.15 mg/mL
[4]; organic solvent or mixture, Methanol
  solubility at 18 h: 481 mg/mL
[4]; organic solvent or mixture, THF
  solubility at 18 h: 0.05 mg/mL
[4]; Water
  solubility at 18 h: 28.2 mg/mL
[5]; 55 °C, MeOH (boiling point 65), 10° C. below reflux, read-out: Solubility at high temperature
  solubility: > 250 mg/mL
[5]; 56 °C, THF (boiling point 66), 10° C. below reflux, read-out: Solubility at high temperature
  solubility: 6 mg/mL
[5]; 67 °C, Ethyl Acetate (boiling point 77), 10° C. below reflux, read-out: Solubility at high temperature
  solubility: 2 mg/mL
[5]; 68 °C, EtOH (boiling point 78), 10° C. below reflux, read-out: Solubility at high temperature
  solubility: 212 mg/mL
[5]; 70 °C, MEK (boiling point 80), 10° C. below reflux, read-out: Solubility at high temperature
  solubility: 4 mg/mL
[5]; 71 °C, Acetonitrile (boiling point 81), 10° C. below reflux, read-out: Solubility at high temperature
  solubility: 48 mg/mL
[5]; 79 °C, IPA (boiling point 89), 10° C. below reflux, read-out: Solubility at high temperature
  solubility: 22 mg/mL
[5]; 79 °C, Isopropyl Acetate (boiling point 89), 10° C. below reflux, read-out: Solubility at high temperature
  solubility: 4 mg/mL
[5]; 88 °C, 1-propanol (boiling point 98), 10° C. below reflux, read-out: Solubility at high temperature
  solubility: 160 mg/mL
[5]; 107 °C, MIBK (boiling point 117), 10° C. below reflux, read-out: Solubility at high temperature
  solubility: 5 mg/mL
[5]; 1-propanol, 5° C., read-out: Solubility at 5° C. temperature
  solubility: 8 mg/mL
[5]; Acetone, 5° C., read-out: Solubility at 5° C. temperature
  solubility: 5 mg/mL
[5]; Acetonitrile, 5° C., read-out: Solubility at 5° C. temperature
  solubility: 17 mg/mL
[5]; EtOH, 5° C., read-out: Solubility at 5° C. temperature
  solubility: 24 mg/mL
[5]; Ethyl Acetate, 5° C., read-out: Solubility at 5° C. temperature
  solubility: 1 mg/mL
[5]; IPA, 5° C., read-out: Solubility at 5° C. temperature
  solubility: 5 mg/mL
[5]; Isopropyl Acetate, 5° C., read-out: Solubility at 5° C. temperature
  solubility: 4 mg/mL
[5]; MEK, 5° C., read-out: Solubility at 5° C. temperature
  solubility: 3 mg/mL
[5]; MIBK, 5° C., read-out: Solubility at 5° C. temperature
  solubility: 6 mg/mL
[5]; MeOH, 5° C., read-out: Solubility at 5° C. temperature
  solubility: > 250 mg/mL
[5]; THF, 5° C., read-out: Solubility at 5° C. temperature
  solubility: 4 mg/mL
[6]; 25° C./92% RH
  Stability to humidity 25° C./92% RH: unchanged
[6]; 40° C./75% RH
  Stability to humidity 40° C./75% RH: unchanged
[7]; 25° C.
  Stability to humidity GVS uptake: 1.0%
[7]; relative humidity from about 0% to about 95%, di(4-methylbenzenesulfonate)
  GVS mass increase: less than 1%
